Experimental data from PubChem BioAssay (NCI).
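Cultured in 96-well plates, cells were exposed to test compound for 48 hours across five concentrations. GI50 is the concentration that inhibits growth by half. TGI: concentration producing complete growth inhibition.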

What was measured:
Assay in all cases: growth of human tumour cells (NCI), 48 h
786-0 renal = tested on: 786-0 renal
A498 renal = tested on: A498 renal
A549 NSCLC = tested on: A549 NSCLC
ACHN renal = tested on: ACHN renal
BT-549 breast = tested on: BT-549 breast
CAKI-1 renal = tested on: CAKI-1 renal
CCRF-CEM leukemia = tested on: CCRF-CEM leukemia
COLO 205 colon = tested on: COLO 205 colon
DU-145 prostate = tested on: DU-145 prostate
EKVX NSCLC = tested on: EKVX NSCLC
HCC-2998 colon = tested on: HCC-2998 colon
HCT-116 colon = tested on: HCT-116 colon
HCT-15 colon = tested on: HCT-15 colon
HL-60(TB) leukemia = tested on: HL-60(TB) leukemia
HOP-62 NSCLC = tested on: HOP-62 NSCLC
HOP-92 NSCLC = tested on: HOP-92 NSCLC
HS 578T breast = tested on: HS 578T breast
HT29 colon = tested on: HT29 colon
IGROV1 ovarian = tested on: IGROV1 ovarian
K-562 leukemia = tested on: K-562 leukemia
KM12 colon = tested on: KM12 colon
LOX IMVI melanoma = tested on: LOX IMVI melanoma
M14 melanoma = tested on: M14 melanoma
MALME-3M melanoma = tested on: MALME-3M melanoma
MCF7 breast = tested on: MCF7 breast
MDA-MB-231 breast = tested on: MDA-MB-231 breast
MDA-MB-435 = tested on: MDA-MB-435
MDA-MB-468 breast = tested on: MDA-MB-468 breast
MOLT-4 leukemia = tested on: MOLT-4 leukemia
NCI-H226 lung = tested on: NCI-H226 lung
NCI-H23 lung = tested on: NCI-H23 lung
NCI-H460 lung = tested on: NCI-H460 lung
NCI-H522 lung = tested on: NCI-H522 lung
OVCAR-3 ovarian = tested on: OVCAR-3 ovarian
OVCAR-4 ovarian = tested on: OVCAR-4 ovarian
OVCAR-5 ovarian = tested on: OVCAR-5 ovarian
OVCAR-8 ovarian = tested on: OVCAR-8 ovarian
PC-3 prostate = tested on: PC-3 prostate
RPMI-8226 leukemia = tested on: RPMI-8226 leukemia
RXF 393 renal = tested on: RXF 393 renal
SF-268 CNS = tested on: SF-268 CNS
SF-295 CNS = tested on: SF-295 CNS
SF-539 CNS = tested on: SF-539 CNS
SK-MEL-28 melanoma = tested on: SK-MEL-28 melanoma
SK-MEL-5 melanoma = tested on: SK-MEL-5 melanoma
SK-OV-3 ovarian = tested on: SK-OV-3 ovarian
SN12C renal = tested on: SN12C renal
SNB-19 CNS = tested on: SNB-19 CNS
SNB-75 CNS = tested on: SNB-75 CNS
SR leukemia = tested on: SR leukemia
SW-620 colon = tested on: SW-620 colon
T-47D breast = tested on: T-47D breast
TK-10 renal = tested on: TK-10 renal
U251 CNS = tested on: U251 CNS
UACC-257 melanoma = tested on: UACC-257 melanoma
UACC-62 melanoma = tested on: UACC-62 melanoma
UO-31 renal = tested on: UO-31 renal

CC1(C)CC[C@]2(C(=O)Nc3ccc(F)cc3)CC[C@]3(C)C(=CCC4[C@@]5(C)C[C@@H](O)[C@H](O)[C@@](C)(CO)C5CC[C@]43C)C2C1 (some centres undefined)
GI50 (786-0 renal): 15.5 µM
TGI (786-0 renal): 30.4 µM
GI50 (A498 renal): 20.8 µM
TGI (A498 renal): 45.6 µM
GI50 (A549 NSCLC): 29.5 µM
TGI (A549 NSCLC): > 100 µM
GI50 (ACHN renal): 14.8 µM
TGI (ACHN renal): 28.1 µM
GI50 (BT-549 breast): 13.1 µM
TGI (BT-549 breast): 26.8 µM
GI50 (CAKI-1 renal): 11.1 µM
TGI (CAKI-1 renal): 39.6 µM
GI50 (CCRF-CEM leukemia): 20 µM
TGI (CCRF-CEM leukemia): 90.6 µM
GI50 (COLO 205 colon): 16.7 µM
TGI (COLO 205 colon): 33.6 µM
GI50 (DU-145 prostate): 20.1 µM
TGI (DU-145 prostate): 45.6 µM
GI50 (EKVX NSCLC): 17.2 µM
TGI (EKVX NSCLC): 47.2 µM
GI50 (HCC-2998 colon): 16.7 µM
TGI (HCC-2998 colon): 31.1 µM
GI50 (HCT-116 colon): 13.1 µM
TGI (HCT-116 colon): 26 µM
GI50 (HCT-15 colon): 13.2 µM
TGI (HCT-15 colon): 27.4 µM
GI50 (HL-60(TB) leukemia): 14.2 µM
TGI (HL-60(TB) leukemia): 38.8 µM
GI50 (HOP-62 NSCLC): 18.8 µM
TGI (HOP-62 NSCLC): 43.5 µM
GI50 (HOP-92 NSCLC): 13.2 µM
TGI (HOP-92 NSCLC): 29 µM
GI50 (HS 578T breast): 20.5 µM
TGI (HS 578T breast): 76.9 µM
GI50 (HT29 colon): 15.6 µM
TGI (HT29 colon): 30.5 µM
GI50 (IGROV1 ovarian): 15.8 µM
TGI (IGROV1 ovarian): 34.1 µM
GI50 (K-562 leukemia): 17.8 µM
TGI (K-562 leukemia): 62.8 µM
GI50 (KM12 colon): 17.5 µM
TGI (KM12 colon): 35.7 µM
GI50 (LOX IMVI melanoma): 15.6 µM
TGI (LOX IMVI melanoma): 30.7 µM
GI50 (M14 melanoma): 15.7 µM
TGI (M14 melanoma): 31.5 µM
GI50 (MALME-3M melanoma): 16 µM
TGI (MALME-3M melanoma): 29.9 µM
GI50 (MCF7 breast): 13 µM
TGI (MCF7 breast): 29.5 µM
GI50 (MDA-MB-231 breast): 14.2 µM
TGI (MDA-MB-231 breast): 28.7 µM
GI50 (MDA-MB-435): 14.4 µM
TGI (MDA-MB-435): 28.8 µM
GI50 (MDA-MB-468 breast): 13.5 µM
TGI (MDA-MB-468 breast): 31.3 µM
GI50 (MOLT-4 leukemia): 7.51 µM
TGI (MOLT-4 leukemia): 30.6 µM
GI50 (NCI-H226 lung): 13.5 µM
TGI (NCI-H226 lung): 34.3 µM
GI50 (NCI-H23 lung): 17.9 µM
TGI (NCI-H23 lung): 39.3 µM
GI50 (NCI-H460 lung): 15.4 µM
TGI (NCI-H460 lung): 33.8 µM
GI50 (NCI-H522 lung): 17.6 µM
TGI (NCI-H522 lung): 40.1 µM
GI50 (OVCAR-3 ovarian): 16.3 µM
TGI (OVCAR-3 ovarian): 31.2 µM
GI50 (OVCAR-4 ovarian): 16.8 µM
TGI (OVCAR-4 ovarian): 46.5 µM
GI50 (OVCAR-5 ovarian): 14.6 µM
TGI (OVCAR-5 ovarian): 28.4 µM
GI50 (OVCAR-8 ovarian): 29 µM
TGI (OVCAR-8 ovarian): > 100 µM
GI50 (PC-3 prostate): 12.8 µM
TGI (PC-3 prostate): 38.5 µM
GI50 (RPMI-8226 leukemia): 14.9 µM
TGI (RPMI-8226 leukemia): 64.6 µM
GI50 (RXF 393 renal): 10.9 µM
TGI (RXF 393 renal): 23.3 µM
GI50 (SF-268 CNS): 22.6 µM
TGI (SF-268 CNS): 89 µM
GI50 (SF-295 CNS): 13.9 µM
TGI (SF-295 CNS): 28.6 µM
GI50 (SF-539 CNS): 14.8 µM
TGI (SF-539 CNS): 28.3 µM
GI50 (SK-MEL-28 melanoma): 15.6 µM
TGI (SK-MEL-28 melanoma): 31.6 µM
GI50 (SK-MEL-5 melanoma): 14.7 µM
TGI (SK-MEL-5 melanoma): 27.8 µM
GI50 (SK-OV-3 ovarian): 20.3 µM
TGI (SK-OV-3 ovarian): 51 µM
GI50 (SN12C renal): 14.8 µM
TGI (SN12C renal): 29.6 µM
GI50 (SNB-19 CNS): 23.8 µM
TGI (SNB-19 CNS): > 100 µM
GI50 (SNB-75 CNS): 13.5 µM
TGI (SNB-75 CNS): 61 µM
GI50 (SR leukemia): 10.3 µM
TGI (SR leukemia): 37.3 µM
GI50 (SW-620 colon): 25.8 µM
TGI (SW-620 colon): > 100 µM
GI50 (T-47D breast): 12.9 µM
TGI (T-47D breast): 32.1 µM
GI50 (TK-10 renal): 22.8 µM
TGI (TK-10 renal): 54.1 µM
GI50 (U251 CNS): 14.9 µM
TGI (U251 CNS): 30 µM
GI50 (UACC-257 melanoma): 18.4 µM
TGI (UACC-257 melanoma): 47.9 µM
GI50 (UACC-62 melanoma): 9.17 µM
TGI (UACC-62 melanoma): 21.9 µM
GI50 (UO-31 renal): 12.8 µM
TGI (UO-31 renal): 29.2 µM
